According to ChEMBL document CHEMBL4800729 (2021):

Assays:
[1] = biological target: Mu-type opioid receptor (Homo sapiens) (UniProt P35372); conditions: Compound concentration 10.0 uM
[2] = biological target: Prostaglandin G/H synthase 1 (Homo sapiens) (UniProt P23219); test: Cyclooxygenase COX-1 Eurofins-Panlabs enzyme assay; parameters: substrate with concentration; conditions: Compound concentration 10.0 uM
[3] = biological target: Tyrosine-protein kinase JAK1 (Homo sapiens) (UniProt P23458); test: JAK1(h) Millipore kinase panel; conditions: Compound concentration 1.0 uM
Sequence of Tyrosine-protein kinase JAK1 (Homo sapiens) (P23458 whole entry): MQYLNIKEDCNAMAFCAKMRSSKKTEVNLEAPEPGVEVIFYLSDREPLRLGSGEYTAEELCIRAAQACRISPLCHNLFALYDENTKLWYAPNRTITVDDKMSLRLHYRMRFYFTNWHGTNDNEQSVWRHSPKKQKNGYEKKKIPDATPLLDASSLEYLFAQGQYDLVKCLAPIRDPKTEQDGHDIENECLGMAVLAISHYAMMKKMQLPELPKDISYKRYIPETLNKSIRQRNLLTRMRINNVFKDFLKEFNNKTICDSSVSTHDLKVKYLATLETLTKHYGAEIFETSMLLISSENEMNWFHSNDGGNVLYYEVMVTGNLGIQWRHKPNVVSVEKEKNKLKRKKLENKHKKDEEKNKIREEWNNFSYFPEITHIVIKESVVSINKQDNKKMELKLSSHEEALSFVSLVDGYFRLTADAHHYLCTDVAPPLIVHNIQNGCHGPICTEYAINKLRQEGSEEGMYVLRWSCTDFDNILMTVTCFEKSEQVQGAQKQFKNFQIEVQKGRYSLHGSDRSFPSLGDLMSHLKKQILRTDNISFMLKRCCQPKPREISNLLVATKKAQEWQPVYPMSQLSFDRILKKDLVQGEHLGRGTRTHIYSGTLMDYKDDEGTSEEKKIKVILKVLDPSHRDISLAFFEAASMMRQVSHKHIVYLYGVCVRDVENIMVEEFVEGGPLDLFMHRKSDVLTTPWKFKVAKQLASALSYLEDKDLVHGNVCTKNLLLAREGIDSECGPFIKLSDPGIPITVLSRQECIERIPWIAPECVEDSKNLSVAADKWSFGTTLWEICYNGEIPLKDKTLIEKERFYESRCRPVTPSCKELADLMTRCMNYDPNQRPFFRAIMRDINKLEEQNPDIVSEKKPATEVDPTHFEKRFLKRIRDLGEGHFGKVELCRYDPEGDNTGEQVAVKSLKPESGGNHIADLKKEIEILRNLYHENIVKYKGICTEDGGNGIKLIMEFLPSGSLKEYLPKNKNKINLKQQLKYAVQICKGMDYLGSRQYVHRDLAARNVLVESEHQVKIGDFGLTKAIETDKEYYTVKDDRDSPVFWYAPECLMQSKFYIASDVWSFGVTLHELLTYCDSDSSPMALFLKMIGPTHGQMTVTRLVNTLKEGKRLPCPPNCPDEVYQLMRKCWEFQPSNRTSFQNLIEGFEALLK

[4] = biological target: D(4) dopamine receptor (Homo sapiens) (UniProt P21917); conditions: Compound concentration 10.0 uM
[5] = biological target: Ephrin type-A receptor 2 (Homo sapiens) (UniProt P29317); test: EphA2(h) Millipore kinase panel; conditions: Compound concentration 1.0 uM
Sequence of Ephrin type-A receptor 2 (Homo sapiens) (P29317 whole entry): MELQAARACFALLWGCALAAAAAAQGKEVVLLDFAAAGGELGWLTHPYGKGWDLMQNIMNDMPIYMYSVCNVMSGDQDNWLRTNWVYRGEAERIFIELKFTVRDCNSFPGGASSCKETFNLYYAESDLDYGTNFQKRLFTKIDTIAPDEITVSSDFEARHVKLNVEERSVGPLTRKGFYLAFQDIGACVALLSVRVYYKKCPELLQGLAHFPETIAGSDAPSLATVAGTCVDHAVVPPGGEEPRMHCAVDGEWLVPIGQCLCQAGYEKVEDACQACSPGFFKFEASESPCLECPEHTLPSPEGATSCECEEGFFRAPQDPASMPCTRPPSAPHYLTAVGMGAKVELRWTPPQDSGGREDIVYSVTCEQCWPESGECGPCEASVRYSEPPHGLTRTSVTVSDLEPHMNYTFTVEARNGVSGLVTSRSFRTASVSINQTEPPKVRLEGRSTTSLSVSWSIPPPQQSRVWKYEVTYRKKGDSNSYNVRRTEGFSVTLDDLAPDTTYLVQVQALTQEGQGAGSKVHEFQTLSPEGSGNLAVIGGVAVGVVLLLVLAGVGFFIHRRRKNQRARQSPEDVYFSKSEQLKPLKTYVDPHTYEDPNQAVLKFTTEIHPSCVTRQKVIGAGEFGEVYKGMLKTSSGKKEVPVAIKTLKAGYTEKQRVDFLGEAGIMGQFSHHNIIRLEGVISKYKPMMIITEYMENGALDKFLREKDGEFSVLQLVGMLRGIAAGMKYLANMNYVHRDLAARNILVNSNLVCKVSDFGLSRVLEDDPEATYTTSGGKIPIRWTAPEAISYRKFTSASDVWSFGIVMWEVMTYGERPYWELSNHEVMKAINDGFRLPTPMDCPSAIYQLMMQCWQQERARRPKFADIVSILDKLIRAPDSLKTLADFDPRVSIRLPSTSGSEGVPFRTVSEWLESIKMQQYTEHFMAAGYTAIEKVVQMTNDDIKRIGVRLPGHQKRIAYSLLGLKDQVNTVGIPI

[6] = biological target: RAC-gamma serine/threonine-protein kinase (Homo sapiens) (UniProt Q9Y243); test: PKBgamma(h) Millipore kinase panel; conditions: Compound concentration 1.0 uM
[7] = biological target: Insulin-like growth factor 1 receptor (Homo sapiens) (UniProt P08069); test: IGF-1R(h), activated Millipore kinase panel; conditions: Compound concentration 1.0 uM
[8] = biological target: STE20-like serine/threonine-protein kinase (Homo sapiens) (UniProt Q9H2G2); test: SLK(h) Millipore kinase panel; conditions: Compound concentration 1.0 uM
Sequence of STE20-like serine/threonine-protein kinase (Homo sapiens) (Q9H2G2 whole entry, looked up): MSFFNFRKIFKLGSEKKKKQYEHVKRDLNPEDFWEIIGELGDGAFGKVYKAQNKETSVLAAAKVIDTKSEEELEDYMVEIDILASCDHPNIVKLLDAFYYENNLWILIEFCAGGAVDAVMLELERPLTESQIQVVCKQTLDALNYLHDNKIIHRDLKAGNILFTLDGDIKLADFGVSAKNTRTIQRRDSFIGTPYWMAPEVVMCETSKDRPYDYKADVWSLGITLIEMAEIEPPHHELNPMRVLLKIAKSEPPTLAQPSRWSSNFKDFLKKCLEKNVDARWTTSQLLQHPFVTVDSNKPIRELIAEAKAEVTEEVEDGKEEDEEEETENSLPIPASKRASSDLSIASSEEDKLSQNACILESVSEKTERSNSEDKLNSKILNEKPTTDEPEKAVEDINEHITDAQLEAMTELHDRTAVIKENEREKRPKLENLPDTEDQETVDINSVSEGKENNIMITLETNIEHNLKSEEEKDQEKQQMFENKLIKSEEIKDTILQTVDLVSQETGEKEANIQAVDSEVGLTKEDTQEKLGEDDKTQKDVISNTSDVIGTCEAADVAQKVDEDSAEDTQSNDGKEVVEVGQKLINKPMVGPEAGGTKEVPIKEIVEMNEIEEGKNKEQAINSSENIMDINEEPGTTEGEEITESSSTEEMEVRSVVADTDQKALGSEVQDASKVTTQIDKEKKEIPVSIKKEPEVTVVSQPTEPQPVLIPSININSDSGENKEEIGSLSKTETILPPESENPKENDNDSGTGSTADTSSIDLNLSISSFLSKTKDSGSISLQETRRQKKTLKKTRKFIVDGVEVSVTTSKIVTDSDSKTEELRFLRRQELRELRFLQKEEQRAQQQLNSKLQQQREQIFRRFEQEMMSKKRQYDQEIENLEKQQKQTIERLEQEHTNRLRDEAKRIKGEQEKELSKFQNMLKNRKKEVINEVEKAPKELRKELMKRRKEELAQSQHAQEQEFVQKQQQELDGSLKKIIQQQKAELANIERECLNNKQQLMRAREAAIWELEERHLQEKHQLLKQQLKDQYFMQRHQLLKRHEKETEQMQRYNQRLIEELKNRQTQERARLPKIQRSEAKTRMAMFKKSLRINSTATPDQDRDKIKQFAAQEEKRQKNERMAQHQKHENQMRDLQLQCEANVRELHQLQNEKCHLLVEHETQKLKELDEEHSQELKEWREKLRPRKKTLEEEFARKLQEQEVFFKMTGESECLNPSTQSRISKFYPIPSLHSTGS

[9] = biological target: Ephrin type-A receptor 1 (Homo sapiens) (UniProt P21709); test: EphA1(h) Millipore kinase panel; conditions: Compound concentration 1.0 uM
[10] = biological target: Fibroblast growth factor receptor 2 (Homo sapiens) (UniProt P21802); test: FGFR2(h) Millipore kinase panel; conditions: Compound concentration 1.0 uM
[11] = biological target: Mitogen-activated protein kinase kinase kinase 7 (Homo sapiens) (UniProt O43318); test: TAK1(h) Millipore kinase panel; conditions: Compound concentration 1.0 uM
Sequence of Mitogen-activated protein kinase kinase kinase 7 (Homo sapiens) (O43318 whole entry): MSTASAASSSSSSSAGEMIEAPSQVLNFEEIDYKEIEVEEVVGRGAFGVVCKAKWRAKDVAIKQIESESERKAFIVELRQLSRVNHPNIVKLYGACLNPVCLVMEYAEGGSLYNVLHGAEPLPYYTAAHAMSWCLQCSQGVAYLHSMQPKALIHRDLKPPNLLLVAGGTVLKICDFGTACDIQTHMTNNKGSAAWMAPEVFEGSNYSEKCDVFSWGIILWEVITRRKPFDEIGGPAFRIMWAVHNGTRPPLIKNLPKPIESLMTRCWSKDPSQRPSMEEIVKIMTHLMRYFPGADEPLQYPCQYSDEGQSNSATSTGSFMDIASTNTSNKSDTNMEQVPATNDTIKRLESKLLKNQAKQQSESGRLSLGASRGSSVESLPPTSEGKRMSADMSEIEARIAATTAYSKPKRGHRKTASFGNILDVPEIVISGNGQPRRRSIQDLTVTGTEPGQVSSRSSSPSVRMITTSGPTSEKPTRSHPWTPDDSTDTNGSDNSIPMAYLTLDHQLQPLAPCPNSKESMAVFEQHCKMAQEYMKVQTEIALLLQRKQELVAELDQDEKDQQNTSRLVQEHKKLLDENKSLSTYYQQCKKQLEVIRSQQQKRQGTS

[12] = biological target: Protein kinase C zeta type (Homo sapiens) (UniProt Q05513); test: PKCzeta(h) Millipore kinase panel; conditions: Compound concentration 1.0 uM
[13] = biological target: Tyrosine-protein kinase Lck (Homo sapiens) (UniProt P06239); test: Lck(h) Millipore kinase panel; conditions: Compound concentration 1.0 uM
[14] = biological target: Wee1-like protein kinase (Homo sapiens) (UniProt P30291); test: WEE1(h) Millipore kinase panel; conditions: Compound concentration 1.0 uM
[15] = biological target: NUAK family SNF1-like kinase 2 (Homo sapiens) (UniProt Q9H093); test: NUAK2(h) Millipore kinase panel; conditions: Compound concentration 1.0 uM
[16] = biological target: 3',5'-cyclic-AMP phosphodiesterase 4D (Homo sapiens) (UniProt Q08499); test: Inhibition of Phosphodiesterase PDE4D2 at 10 µM in the Eurofins-Panlabs enzyme assay (Eurofins_assay_154420); parameters: substrate with concentration; conditions: Compound concentration 10.0 uM
[17] = biological target: Casein kinase I isoform alpha (Homo sapiens) (UniProt P48729); test: CK1alpha(h) Millipore kinase panel; conditions: Compound concentration 1.0 uM
Sequence of Casein kinase I isoform alpha (Homo sapiens) (P48729 2-337 limits assumed): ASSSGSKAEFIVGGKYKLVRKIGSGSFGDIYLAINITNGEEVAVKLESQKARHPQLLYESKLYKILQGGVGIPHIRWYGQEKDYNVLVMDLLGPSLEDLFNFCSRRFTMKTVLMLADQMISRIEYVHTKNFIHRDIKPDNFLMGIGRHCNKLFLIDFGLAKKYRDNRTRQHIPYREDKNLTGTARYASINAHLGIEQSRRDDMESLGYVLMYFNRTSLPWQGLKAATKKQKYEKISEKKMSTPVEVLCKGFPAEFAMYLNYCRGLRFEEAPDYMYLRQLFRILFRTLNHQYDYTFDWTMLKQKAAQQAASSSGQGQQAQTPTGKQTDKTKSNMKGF

Measured: inhibition

Sequence of Mu-type opioid receptor (Homo sapiens) (P35372 whole entry): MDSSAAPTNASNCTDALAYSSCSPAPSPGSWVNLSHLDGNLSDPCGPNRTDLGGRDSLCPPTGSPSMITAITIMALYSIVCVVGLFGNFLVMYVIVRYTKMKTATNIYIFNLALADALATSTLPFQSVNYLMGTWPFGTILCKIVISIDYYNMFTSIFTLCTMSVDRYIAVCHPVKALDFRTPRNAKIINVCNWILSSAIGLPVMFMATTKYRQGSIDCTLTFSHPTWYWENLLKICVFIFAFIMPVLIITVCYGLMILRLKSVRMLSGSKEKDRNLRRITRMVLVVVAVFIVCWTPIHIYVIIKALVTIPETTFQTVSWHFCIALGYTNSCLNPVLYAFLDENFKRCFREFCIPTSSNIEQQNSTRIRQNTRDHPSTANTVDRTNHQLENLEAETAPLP

CC[C@@H](Nc1c(C#N)c(-c2ccc(-c3cccc(C)c3F)cc2)nc2cnccc12)C(=O)O [BAY-091]
inactive: [1] 13% | [2] 19% | [3] -0.44% | [4] 2.8% | [5] -0.55% | [6] 9.92% | [7] 12% | [8] 19.7% | [9] 9.2% | [10] 9.63% | [11] 7.89% | [12] -2.41% | [13] -0.68% | [14] 5.28% | [15] 10.4% | [16] 38% | [17] 3.17%
